# Reference: PubChem BioAssay (NCI)
#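 Dose response: 5 concentrations. Exposure: 48 h. Format: 96-well plates. Endpoint: linear interpolation; highest concentration if not reached. Abbreviation: GI50, concentration required for 50% inhibition of growth. Definition used: TGI = concentration required for complete inhibition of growth.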
# Tests used:
# Assay in all cases: growth of human tumour cells (NCI), 48 h
# OVCAR-5 ovarian = tested on: OVCAR-5 ovarian
# HOP-92 NSCLC = tested on: HOP-92 NSCLC
# IGROV1 ovarian = tested on: IGROV1 ovarian
# MOLT-4 leukemia = tested on: MOLT-4 leukemia
# HL-60(TB) leukemia = tested on: HL-60(TB) leukemia
# SNB-75 CNS = tested on: SNB-75 CNS
# RPMI-8226 leukemia = tested on: RPMI-8226 leukemia
# SF-295 CNS = tested on: SF-295 CNS
# DU-145 prostate = tested on: DU-145 prostate
# NCI/ADR-RES ovarian = tested on: NCI/ADR-RES ovarian
SMILES,TGI (OVCAR-5 ovarian),TGI (HOP-92 NSCLC),TGI (IGROV1 ovarian),TGI (MOLT-4 leukemia),TGI (HL-60(TB) leukemia),TGI (SNB-75 CNS),TGI (RPMI-8226 leukemia),TGI (SF-295 CNS),TGI (DU-145 prostate),TGI (NCI/ADR-RES ovarian),GI50 (OVCAR-5 ovarian),GI50 (DU-145 prostate),GI50 (IGROV1 ovarian),GI50 (MOLT-4 leukemia),GI50 (SF-295 CNS),GI50 (NCI/ADR-RES ovarian)
O=C1NC(Cc2ccccc2)C(=O)N2CCCC12 (stereo not given),> 100 µM,> 100 µM,> 100 µM,> 100 µM,> 100 µM,> 100 µM,> 100 µM,> 100 µM,–,–,–,–,–,–,–,–
COc1ccc(N2C(=O)C(=O)C3(CCCCC3)C2=O)c(OC)c1OC,> 100 µM,–,–,> 100 µM,> 100 µM,> 100 µM,> 100 µM,> 100 µM,> 100 µM,> 100 µM,–,–,–,–,–,–
COc1cc(CC2C(=O)OCC2[C@@H](OC(C)=O)c2ccc3c(c2)OCO3)c(Br)c(OC)c1OC (stereo not given in full),–,92.7 µM,> 100 µM,> 100 µM,> 100 µM,> 100 µM,–,> 100 µM,–,–,–,–,–,–,–,–
Cc1ccc(Cc2n[nH]c(=O)n2N2C(=O)c3ccccc3C2=O)cc1,> 100 µM,> 100 µM,> 100 µM,> 100 µM,–,> 100 µM,–,> 100 µM,> 100 µM,> 100 µM,–,–,–,–,–,–
COc1ccc(Oc2nc3c(N)cc(C(F)(F)F)cc3nc2-c2ccccc2)cc1,–,> 100 µM,43.5 µM,> 100 µM,> 100 µM,40.6 µM,> 100 µM,41.2 µM,–,> 100 µM,–,–,–,–,–,–
COc1cc(O)c2c(=O)c(OC)c(-c3ccc(OC)c(OC)c3)oc2c1.[Sn],> 100 µM,–,> 100 µM,> 100 µM,> 100 µM,> 100 µM,> 100 µM,> 100 µM,> 100 µM,> 100 µM,> 100 µM,> 100 µM,> 100 µM,80.1 µM,17.4 µM,> 100 µM
COc1ccc(C=NCCCN=Cc2ccc(OC)cc2O)c(O)c1,> 100 µM,68.8 µM,> 100 µM,> 100 µM,> 100 µM,64.8 µM,> 100 µM,54.5 µM,> 100 µM,–,–,–,–,–,–,–
O=C1C(=Cc2ccc([N+](=O)[O-])o2)C(=O)N(CCc2ccccc2)S(=O)(=O)N1CCc1ccccc1,> 100 µM,33.5 µM,> 100 µM,56.6 µM,41.9 µM,> 100 µM,> 100 µM,> 100 µM,–,–,–,–,–,–,–,–
Cc1cc(=O)[nH]c(NNC(C#N)c2ccc(N(C)C)cc2)n1 (stereo not given),> 100 µM,> 100 µM,> 100 µM,–,> 100 µM,> 100 µM,> 100 µM,> 100 µM,–,–,–,–,–,–,–,–
Cc1ccc(O)cc1 (tested in a mixture with another compound),> 100 µM,–,> 100 µM,> 100 µM,> 100 µM,–,> 100 µM,> 100 µM,> 100 µM,> 100 µM,–,–,–,–,–,–
NNC(=S)NN/C=C(\C=Nc1ccccc1)[N+](=O)[O-],> 100 µM,> 100 µM,> 100 µM,–,> 100 µM,> 100 µM,> 100 µM,> 100 µM,–,–,–,–,–,–,–,–
COCC1N=C(c2cc(OC)c(OC)c(OC)c2-c2cc3c(cc2[C@@H](C)O)OCO3)O[C@H]1c1ccccc1 (stereo not given in full),> 100 µM,> 84.5 µM,> 100 µM,> 100 µM,> 100 µM,> 72.3 µM,> 100 µM,> 100 µM,–,> 95.7 µM,–,–,–,–,–,–
O=C1NC2OC(CO)C(O)C(O)C2O1 (stereo not given),> 100 µM,> 100 µM,> 100 µM,> 100 µM,> 100 µM,> 100 µM,–,> 100 µM,–,–,–,–,–,–,–,–
CCC1OC2C(CC=C(C)C)=C3OC(C)(O)C(C)(CC)C(=O)C3=C3OC(=O)C=C1C32 (stereo not given),> 100 µM,71.2 µM,–,> 100 µM,–,–,> 100 µM,> 100 µM,> 100 µM,95.8 µM,–,–,–,–,–,–
Cc1cc(N)c2cc(NC(=O)Nc3ccc4nc(C)cc(N)c4c3)ccc2n1,> 100 µM,> 100 µM,> 100 µM,> 100 µM,–,–,> 100 µM,> 100 µM,> 100 µM,> 100 µM,–,–,–,–,–,–
COc1ccc(OC)c(-c2cc(=O)c3cc4c(cc3[nH]2)OCO4)c1,> 100 µM,41.3 µM,> 100 µM,> 84.9 µM,> 26.1 µM,> 38.1 µM,> 46.6 µM,> 27.6 µM,–,–,–,–,–,–,–,–
O=C1C(Cl)C(c2ccc([N+](=O)[O-])cc2)N1n1cnc2ccccc2c1=O (stereo not given),> 100 µM,–,> 100 µM,> 100 µM,–,39 µM,–,68.9 µM,–,–,–,–,–,–,–,–
CC(=O)N1CCN(CCCCN2c3ccccc3Sc3cc(N=[N+]=[N-])ccc32)CC1,26.6 µM,–,29.1 µM,25.3 µM,27.3 µM,26.2 µM,29.1 µM,31.5 µM,32.1 µM,27.4 µM,–,–,–,–,–,–
